What all share (assay): KinomeScan kinase panel, single concentration 10 µM
Holding throughout (assay type): binding

Assay [1] concerns the target T1, KinomeScan kinase panel (Homo sapiens, UniProt O75116).
T1 construct: purchased DiscoveRx (KinomeScan)
The following applies: read-out: score (%).

In assay [2] the target is T2, KinomeScan kinase panel (Homo sapiens, UniProt P42680).
T2 construct: purchased DiscoveRx (KinomeScan)
T2 sequence (P42680 1-631): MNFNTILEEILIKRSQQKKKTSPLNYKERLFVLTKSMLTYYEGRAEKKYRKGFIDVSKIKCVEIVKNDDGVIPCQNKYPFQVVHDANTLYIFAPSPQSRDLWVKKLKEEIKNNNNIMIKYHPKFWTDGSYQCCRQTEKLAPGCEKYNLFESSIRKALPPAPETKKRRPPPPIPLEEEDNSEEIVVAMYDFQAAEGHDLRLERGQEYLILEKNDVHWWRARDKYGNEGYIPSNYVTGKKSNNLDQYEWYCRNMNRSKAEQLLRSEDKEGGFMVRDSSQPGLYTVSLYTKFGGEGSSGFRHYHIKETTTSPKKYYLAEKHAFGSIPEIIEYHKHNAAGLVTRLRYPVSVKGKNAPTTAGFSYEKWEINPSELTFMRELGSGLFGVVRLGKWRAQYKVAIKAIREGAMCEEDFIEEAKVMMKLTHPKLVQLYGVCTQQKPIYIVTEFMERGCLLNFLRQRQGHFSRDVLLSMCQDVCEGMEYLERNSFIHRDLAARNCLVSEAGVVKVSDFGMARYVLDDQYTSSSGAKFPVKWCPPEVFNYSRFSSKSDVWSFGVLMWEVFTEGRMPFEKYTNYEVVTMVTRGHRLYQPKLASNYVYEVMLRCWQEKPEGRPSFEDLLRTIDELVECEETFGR
To be noted: 10 µM, read-out: score (%).

Assay [3] deals with T3, KinomeScan kinase panel (Homo sapiens, UniProt P54753).
T3 construct: purchased DiscoveRx (KinomeScan)
T3 sequence (P54753 34-998): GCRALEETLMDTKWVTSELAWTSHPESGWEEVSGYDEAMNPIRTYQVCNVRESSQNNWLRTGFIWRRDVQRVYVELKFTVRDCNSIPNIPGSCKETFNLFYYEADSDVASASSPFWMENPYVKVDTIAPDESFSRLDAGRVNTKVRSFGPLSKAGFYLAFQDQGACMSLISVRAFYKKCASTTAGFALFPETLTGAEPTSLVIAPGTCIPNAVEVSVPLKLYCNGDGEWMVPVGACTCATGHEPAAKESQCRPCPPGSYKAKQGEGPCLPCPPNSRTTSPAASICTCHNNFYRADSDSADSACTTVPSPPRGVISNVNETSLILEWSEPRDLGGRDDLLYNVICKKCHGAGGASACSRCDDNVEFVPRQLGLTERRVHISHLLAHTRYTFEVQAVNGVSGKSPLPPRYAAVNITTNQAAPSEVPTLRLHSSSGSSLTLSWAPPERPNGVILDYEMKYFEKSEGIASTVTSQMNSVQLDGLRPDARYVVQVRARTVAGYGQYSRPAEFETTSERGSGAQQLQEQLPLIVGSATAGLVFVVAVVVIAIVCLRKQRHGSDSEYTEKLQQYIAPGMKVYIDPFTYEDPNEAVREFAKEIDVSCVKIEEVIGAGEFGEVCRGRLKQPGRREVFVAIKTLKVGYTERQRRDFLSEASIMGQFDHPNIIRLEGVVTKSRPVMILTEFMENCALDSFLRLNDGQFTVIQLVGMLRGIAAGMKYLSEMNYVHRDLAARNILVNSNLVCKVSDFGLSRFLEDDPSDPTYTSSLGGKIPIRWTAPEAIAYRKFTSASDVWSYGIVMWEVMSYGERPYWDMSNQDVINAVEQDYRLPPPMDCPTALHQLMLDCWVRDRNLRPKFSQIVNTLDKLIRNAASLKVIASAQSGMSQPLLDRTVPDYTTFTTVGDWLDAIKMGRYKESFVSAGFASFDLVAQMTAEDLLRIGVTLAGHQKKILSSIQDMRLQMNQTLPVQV
The following applies: EPHB3, 10 µM; read-out: score (%).

Assay [4] has as its target T4, KinomeScan kinase panel (Homo sapiens, UniProt P54760).
T4 construct: purchased DiscoveRx (KinomeScan)
T4 sequence (P54760 16-987): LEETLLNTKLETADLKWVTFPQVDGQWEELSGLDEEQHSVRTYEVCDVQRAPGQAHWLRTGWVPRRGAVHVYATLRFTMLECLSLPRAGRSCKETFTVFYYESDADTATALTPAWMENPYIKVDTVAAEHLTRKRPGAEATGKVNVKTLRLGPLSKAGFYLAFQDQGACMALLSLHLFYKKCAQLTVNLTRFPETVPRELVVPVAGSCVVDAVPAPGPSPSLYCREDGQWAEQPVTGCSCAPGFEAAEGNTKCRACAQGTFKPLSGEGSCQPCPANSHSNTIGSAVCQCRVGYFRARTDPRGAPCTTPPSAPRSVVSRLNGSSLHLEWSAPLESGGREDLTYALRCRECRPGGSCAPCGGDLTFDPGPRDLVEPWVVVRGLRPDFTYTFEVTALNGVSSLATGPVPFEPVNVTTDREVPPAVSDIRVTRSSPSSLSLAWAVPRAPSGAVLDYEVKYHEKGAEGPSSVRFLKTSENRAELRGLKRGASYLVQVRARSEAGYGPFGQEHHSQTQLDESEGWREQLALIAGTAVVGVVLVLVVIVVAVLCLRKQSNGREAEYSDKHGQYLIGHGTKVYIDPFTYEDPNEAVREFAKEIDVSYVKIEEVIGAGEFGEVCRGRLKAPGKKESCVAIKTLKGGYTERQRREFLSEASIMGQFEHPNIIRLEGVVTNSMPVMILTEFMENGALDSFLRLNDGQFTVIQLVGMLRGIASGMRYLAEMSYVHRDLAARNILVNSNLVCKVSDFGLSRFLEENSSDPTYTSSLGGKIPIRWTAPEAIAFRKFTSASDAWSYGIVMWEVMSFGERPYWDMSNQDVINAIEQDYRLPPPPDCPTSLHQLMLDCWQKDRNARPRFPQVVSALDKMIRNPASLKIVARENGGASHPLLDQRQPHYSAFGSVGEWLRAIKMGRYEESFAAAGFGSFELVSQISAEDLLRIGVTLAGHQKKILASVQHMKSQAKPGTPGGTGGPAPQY
To be noted: EPHB4, 10 µM; read-out: score (%).

In assay [5] the target is T5, KinomeScan kinase panel (Homo sapiens, UniProt Q9H1R3).
T5 construct: purchased DiscoveRx (KinomeScan)
To be noted: MYLK2, 10 µM; read-out: score (%).

The source of these data is PMC4457528, “Identification of Novel Small Molecule Inhibitors of Oncogenic RET Kinase” (PLoS ONE, 2015).

Like-named read-outs stand apart in the source and are kept apart here. A value given as a limit tells only on which side of the number the result lay.

T5 sequence (Q9H1R3 whole entry): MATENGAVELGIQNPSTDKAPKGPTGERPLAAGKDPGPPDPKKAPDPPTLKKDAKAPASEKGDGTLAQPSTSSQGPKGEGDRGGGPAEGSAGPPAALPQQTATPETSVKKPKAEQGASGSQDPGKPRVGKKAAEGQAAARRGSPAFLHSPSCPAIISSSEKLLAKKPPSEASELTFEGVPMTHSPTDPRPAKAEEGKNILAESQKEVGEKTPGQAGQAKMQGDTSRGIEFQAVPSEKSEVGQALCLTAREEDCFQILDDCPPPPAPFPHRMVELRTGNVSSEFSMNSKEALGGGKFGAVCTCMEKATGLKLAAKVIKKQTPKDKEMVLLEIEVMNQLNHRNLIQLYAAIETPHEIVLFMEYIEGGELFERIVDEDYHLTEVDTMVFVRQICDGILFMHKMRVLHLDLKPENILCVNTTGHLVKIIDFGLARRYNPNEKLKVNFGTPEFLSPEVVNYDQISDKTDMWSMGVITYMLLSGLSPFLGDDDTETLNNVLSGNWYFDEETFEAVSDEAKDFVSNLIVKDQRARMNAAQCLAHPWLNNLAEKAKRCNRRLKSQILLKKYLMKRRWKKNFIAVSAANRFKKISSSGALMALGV
T1 sequence (O75116 whole entry): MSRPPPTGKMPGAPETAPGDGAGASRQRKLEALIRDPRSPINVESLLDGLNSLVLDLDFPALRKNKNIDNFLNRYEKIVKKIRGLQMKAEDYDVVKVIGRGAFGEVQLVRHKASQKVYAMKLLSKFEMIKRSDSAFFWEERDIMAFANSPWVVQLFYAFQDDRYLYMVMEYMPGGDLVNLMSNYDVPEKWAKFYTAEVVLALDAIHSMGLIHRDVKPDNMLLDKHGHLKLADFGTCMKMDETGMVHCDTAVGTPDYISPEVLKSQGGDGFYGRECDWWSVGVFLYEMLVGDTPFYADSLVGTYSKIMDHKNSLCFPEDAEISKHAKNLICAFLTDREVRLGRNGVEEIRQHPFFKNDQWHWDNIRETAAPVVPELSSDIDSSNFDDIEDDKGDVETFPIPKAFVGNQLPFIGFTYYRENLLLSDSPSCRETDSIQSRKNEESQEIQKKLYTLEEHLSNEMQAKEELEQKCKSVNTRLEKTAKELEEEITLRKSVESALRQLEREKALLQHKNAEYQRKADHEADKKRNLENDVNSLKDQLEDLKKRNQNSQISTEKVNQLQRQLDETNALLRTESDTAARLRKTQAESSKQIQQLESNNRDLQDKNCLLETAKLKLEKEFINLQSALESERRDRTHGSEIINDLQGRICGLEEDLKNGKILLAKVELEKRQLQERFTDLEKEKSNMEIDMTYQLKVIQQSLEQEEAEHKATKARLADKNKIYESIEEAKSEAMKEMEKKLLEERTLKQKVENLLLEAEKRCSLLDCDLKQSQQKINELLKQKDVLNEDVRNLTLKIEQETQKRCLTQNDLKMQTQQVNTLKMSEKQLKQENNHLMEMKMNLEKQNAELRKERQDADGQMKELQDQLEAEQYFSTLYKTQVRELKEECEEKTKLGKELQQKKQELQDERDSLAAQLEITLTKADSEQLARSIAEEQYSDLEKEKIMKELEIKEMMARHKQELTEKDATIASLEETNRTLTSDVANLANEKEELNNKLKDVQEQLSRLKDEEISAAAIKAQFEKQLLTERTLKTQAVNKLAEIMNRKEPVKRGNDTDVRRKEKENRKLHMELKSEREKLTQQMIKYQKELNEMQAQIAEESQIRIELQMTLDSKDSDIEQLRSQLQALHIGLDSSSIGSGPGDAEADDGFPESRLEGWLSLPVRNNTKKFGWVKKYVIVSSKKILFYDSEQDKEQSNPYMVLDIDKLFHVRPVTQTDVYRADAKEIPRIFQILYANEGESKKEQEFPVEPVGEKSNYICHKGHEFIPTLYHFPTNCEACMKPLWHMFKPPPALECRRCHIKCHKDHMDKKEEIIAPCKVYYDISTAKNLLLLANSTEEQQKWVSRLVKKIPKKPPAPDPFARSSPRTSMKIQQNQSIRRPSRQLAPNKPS

Take `CCN1CCN(Cc2ccc(NC(=O)c3ccc(C)c(NC(=O)c4cncc(-c5cccs5)c4)c3)cc2C(F)(F)F)CC1` [ALW-II-41-27]: the remaining binding at 10 µM at KinomeScan kinase panel [1] (ROCK2, 10 µM) was 18%; at KinomeScan kinase panel [2] (kinase TEC), 1.7%; on KinomeScan kinase panel [3], 0.3%; at KinomeScan kinase panel [4], 0.55%; on KinomeScan kinase panel [5], more than 30%.
In the case of `CCN1CCN(Cc2ccc(NC(=O)c3ccc(C)c(/C=C/c4cnc5[nH]ccc5c4Cl)c3)cc2C(F)(F)F)CC1` [HG-6-63-01, (E)-3-(2-(4-chloro-1H-pyrrolo[2,3-b]pyridin-5-yl)vinyl)-N-(4-((4-ethylpiperazin-1-yl)methyl)-3-(trifluoromethyl)phenyl)-4-methylbenzamide], the remaining binding at 10 µM is more than 30% on KinomeScan kinase panel [1] (ROCK2, 10 µM); 1.2% on KinomeScan kinase panel [2] (TEC); 11% at KinomeScan kinase panel [3]; 5.7% on KinomeScan kinase panel [4]; 0.25% at KinomeScan kinase panel [5].
Consider `CCN1CCN(Cc2ccc(NC(=O)c3ccc(C)c(C#Cc4cccnc4)c3)cc2C(F)(F)F)CC1` [XMD15-44], for which the remaining binding at 10 µM is 19% on KinomeScan kinase panel [1] (kinase ROCK2, 10 µM); 3.7% on KinomeScan kinase panel [2] (kinase TEC); 0.25% at KinomeScan kinase panel [3]; 1.6% on KinomeScan kinase panel [4]; 3.4% on KinomeScan kinase panel [5].
